Experimental data reported in ChEMBL document CHEMBL1141307, “Antimalarial benzoquinones from an endophytic fungus, Xylaria sp” (J Nat Prod, 2007).
The source made the active and inactive calls. No cut-off for these calls is given here.

How the values were obtained:
Vero = experiment: Cytotoxicity against African green monkey Vero cells after 72 hrs; format: cell-based; details: Chlorocebus sabaeus
Plasmodium falciparum = experiment: Antimalarial activity against multidrug-resistant Plasmodium falciparum K1 by microculture radioisotope assay; format: functional, organism-based

In the case of `C[C@H]1OC(=O)c2c(O)cccc2C1O` (stereo not given in full), the Activity (Vero) is reported as “Not Active” and the Activity (Plasmodium falciparum) is reported as “inactive”.
`C[C@H]1[C@@H](O)O[C@@H]2O[C@@]3(C)CC[C@H]4[C@H](C)CC[C@@H]1[C@@]24OO3` [ARTENIMOL] was tested, and the IC50 (Plasmodium falciparum) was 3.3 nM.
`Cc1c2ccncc2c(C)c2c1[nH]c1ccccc12` [ELLIPTECINE] was tested, and the IC50 (Vero) was 2030 nM.
`COC1=CC(=O)C(Cl)=C(C)C1=O` was tested, and the IC50 (Vero) was 1350 nM and the IC50 (Plasmodium falciparum) was 1840 nM.
With `COc1cc2c3c(oc2c(C)c1O)C(=O)C(C)=CC3=O` [XYLARIAQUINONE A] the IC50 (Vero) was over 184000 nM and the IC50 (Plasmodium falciparum) was 6680 nM.
`COC1=CC(=O)C(O)=C(C)C1=O` was tested, and the Activity (Vero) was “Not Active” and the Activity (Plasmodium falciparum) was “inactive”.
